For one data set, the system named is HCT-116. The data set is described as follows: Cytotoxicity against human HCT116 cells assessed as inhibition of cell proliferation after 96 hrs. The class given is functional, cell-based. The settings on record: HCT-116, 96 h.
Data set [1] is described as follows: Metabolic stability in BALB/c mouse hepatic microsomes assessed per mg of microsomal protein at 1 umol/L preincubated for 5 mins by LC-MS/MS method. The settings on record: 1 µM. It counts as ADME, Liver, Microsome.
For a further data set, the system named is A549. The data set is described as follows: Cytotoxicity against human A549 cells assessed as inhibition of cell proliferation after 96 hrs. The settings on record: A549, 96 h. It counts as functional, cell-based.
The next data set deals with HT-29. The data set is described as follows: Cytotoxicity against human HT-29 cells assessed as inhibition of cell proliferation after 96 hrs. The class given is functional, cell-based. The settings on record: HT-29, 96 h.

Regarding `COc1c(Cl)c2c(c(OC)c1OC)-c1ccc(OC)c(=O)cc1[C@@H](NC(=S)Nc1n[nH]c(C)n1)CC2`, the IC50 (as a rule, the concentration at which inhibition is half-maximal) in the data set on HCT-116 was determined as 0.5 nM; in the data set on A549 it was 1.7 nM; in the data set with HT-29 it was 0.3 nM. For the same molecule, in data set [1], the Intrinsic clearance came to 223 µL/min/mg.
For `COc1c(Cl)c2c(c(OC)c1OC)-c1ccc(OC)c(=O)cc1[C@@H](NC(=S)N1CCC1)CC2`, the results for the half-maximal inhibitory concentration (IC50) in the data set with HCT-116, with A549 and with HT-29 were 8.4 nM, 33.3 nM and 5.8 nM, respectively.
Regarding `COc1c(Cl)c2c(c(OC)c1OC)-c1ccc(OC)c(=O)cc1[C@@H](NC(=S)Nc1cccc(N(C)C)c1)CC2`, the IC50 turned out to be 24.2 nM in the data set on HCT-116, 38.4 nM in the data set with A549 and 4.4 nM with HT-29.
Consider `COc1c(Cl)c2c(c(OC)c1OC)-c1ccc(OC)c(=O)cc1[C@@H](NC(=S)NCCO)CC2`, for which the IC50 stood at 89.7 nM with HCT-116, 251 nM in the data set with A549 and 52.7 nM in the data set with HT-29.
For the molecule `COc1c(Cl)c2c(c(OC)c1OC)-c1ccc(OC)c(=O)cc1[C@@H](NC(C)=O)CC2`, the IC50 with HCT-116 worked out at 8.1 nM; with A549, 9.9 nM; in the data set on HT-29, 7.9 nM. The Intrinsic clearance in data set [1] came to 28 µL/min/mg.
As for `CCS(=O)(=O)N[C@H]1CCc2c(Cl)c(OC)c(OC)c(OC)c2-c2ccc(OC)c(=O)cc21`, the IC50 in the data set with HCT-116 was determined as 39.9 nM; in the data set on A549, 48.1 nM; in the data set on HT-29, 42.6 nM. This molecule also displayed an Intrinsic clearance in data set [1] of 5 µL/min/mg.
Regarding `CCCN(CCC)C(=S)N[C@H]1CCc2c(Cl)c(OC)c(OC)c(OC)c2-c2ccc(OC)c(=O)cc21`, the IC50 turned out to be 34.4 nM in the data set with HCT-116, 40.3 nM in the data set with A549 and 38.2 nM in the data set on HT-29.
Take `COc1cccc(NC(=S)N[C@H]2CCc3c(Cl)c(OC)c(OC)c(OC)c3-c3ccc(OC)c(=O)cc32)c1`: the values for the IC50 in the data set with HCT-116, in the data set with A549 and with HT-29 were 1.4 nM, 23.3 nM and 0.5 nM, respectively.
The matching figures for `COc1ccc(NC(=S)N[C@H]2CCc3c(Cl)c(OC)c(OC)c(OC)c3-c3ccc(OC)c(=O)cc32)cc1`: 1.4 nM, 8 nM and 0.3 nM.
Take `COc1c(Cl)c2c(c(OC)c1OC)-c1ccc(OC)c(=O)cc1[C@@H](NC(=S)Nc1ccccn1)CC2`: the IC50 in the data set with HCT-116 is 61.7 nM; with A549 it was 170 nM; with HT-29, 34.6 nM.
On to `COc1c(Cl)c2c(c(OC)c1OC)-c1ccc(OC)c(=O)cc1[C@@H](NC(=S)Nc1nccs1)CC2`, for which the IC50 in the data set with HCT-116 turned out to be 6.5 nM; with A549, 10.1 nM; in the data set with HT-29, 1.1 nM.
Turning to `COc1c(Cl)c2c(c(OC)c1OC)-c1ccc(OC)c(=O)cc1[C@@H](NS(C)(=O)=O)CC2`, the IC50 was 36.9 nM in the data set with HCT-116, 45.4 nM in the data set with A549 and 38.6 nM with HT-29.
For `COc1c(OC)c2c(c(C(F)F)c1OC)CC[C@H](NC(C)=O)c1cc(=O)c(OC)ccc1-2`, the IC50 came to 45.8 nM with HCT-116, 55.4 nM with A549 and 48.1 nM in the data set with HT-29.
As to `COc1c(Cl)c2c(c(OC)c1OC)-c1ccc(OC)c(=O)cc1[C@@H](NS(=O)(=O)C(C)C)CC2`, the IC50 in the data set on HCT-116 worked out at 40.7 nM; in the data set on A549, 44.9 nM; in the data set on HT-29, 42.2 nM.
For `CCCNC(=S)N[C@H]1CCc2c(Cl)c(OC)c(OC)c(OC)c2-c2ccc(OC)c(=O)cc21` the same measures were 4.3 nM, 9.9 nM and 1.6 nM.
For `COc1cc2c(c(OC)c1OC)-c1ccc(OC)c(=O)cc1[C@@H](NC(C)=O)CC2` [COLCHICINE], the IC50 was found to be 10.6 nM with HCT-116 and 8.2 nM in the data set on HT-29. The Intrinsic clearance in data set [1] was determined as 1 µL/min/mg.
In the case of `CCCCNC(=S)N[C@H]1CCc2c(Cl)c(OC)c(OC)c(OC)c2-c2ccc(OC)c(=O)cc21`, the values for the IC50 in the data set on HCT-116, in the data set with A549 and with HT-29 were 1.8 nM, 7.4 nM and 1 nM, respectively.
For `COc1ccccc1NC(=S)N[C@H]1CCc2c(Cl)c(OC)c(OC)c(OC)c2-c2ccc(OC)c(=O)cc21`, the IC50 stood at 29.4 nM with HCT-116, 77.6 nM in the data set with A549 and 15 nM in the data set with HT-29.
`COc1c(Cl)c2c(c(OC)c1OC)-c1ccc(OC)c(=O)cc1[C@@H](NC(=S)Nc1cncnc1)CC2`: the IC50 was found to be 177 nM with HCT-116, 941 nM in the data set with A549 and 154 nM with HT-29.
`COc1c(Cl)c2c(c(OC)c1OC)-c1ccc(OC)c(=O)cc1[C@@H](NC(=S)N1CCCCC1)CC2`: the IC50 is 6.9 nM in the data set on HCT-116, 9.6 nM in the data set on A549 and 6.1 nM with HT-29.
As for `COc1c(Cl)c2c(c(OC)c1OC)-c1ccc(OC)c(=O)cc1[C@@H](NC(=S)Nc1cccc(C#N)c1)CC2`, the IC50 worked out at 25.3 nM with HCT-116, 126 nM in the data set with A549 and 6.7 nM in the data set with HT-29.
The matching figures for `COc1c(Cl)c2c(c(OC)c1OC)-c1ccc(OC)c(=O)cc1[C@@H](NC(=S)N1CCCC1)CC2`: 7.2 nM, 12.2 nM and 7.5 nM.
On to `COc1c(Cl)c2c(c(OC)c1OC)-c1ccc(OC)c(=O)cc1[C@@H](NC(=S)Nc1cccnc1)CC2`, for which the IC50 in the data set on HCT-116 was 41.7 nM; with A549 it was 186 nM; in the data set with HT-29 it was 31.6 nM.
As for `COc1c(Cl)c2c(c(OC)c1OC)-c1ccc(OC)c(=O)cc1[C@@H](NC(=S)Nc1cc(C)on1)CC2`, the IC50 with HCT-116 worked out at 7.3 nM; with A549 it was 42.5 nM; with HT-29, 5.6 nM.
Take `COc1c(Cl)c2c(c(OC)c1OC)-c1ccc(OC)c(=O)cc1[C@@H](NS(=O)(=O)c1ccccc1)CC2`: the IC50 in the data set with HCT-116 is 25.8 nM; with A549 it was 36.8 nM; with HT-29 it was 8.7 nM.
Turning to `COc1c(Cl)c2c(c(OC)c1OC)-c1ccc(OC)c(=O)cc1[C@@H](NC(=S)N(C)CCO)CC2`, the IC50 with HCT-116 was 32.6 nM; with A549, 44.9 nM; with HT-29 it was 30.4 nM.
Turning to `CCCCCCNC(=S)N[C@H]1CCc2c(Cl)c(OC)c(OC)c(OC)c2-c2ccc(OC)c(=O)cc21`, the IC50 in the data set with HCT-116 came to 171 nM; with A549, 212 nM; in the data set with HT-29, 176 nM.
For `COc1c(Cl)c2c(c(OC)c1OC)-c1ccc(OC)c(=O)cc1[C@@H](NC(=S)Nc1ncn(C)n1)CC2` the same measures were 8.8 nM, 34.8 nM and 6 nM.
On to `COc1c(Cl)c2c(c(OC)c1OC)-c1ccc(OC)c(=O)cc1[C@@H](NC(=S)Nc1ncnn1C)CC2`, for which the IC50 came to 33.9 nM with HCT-116, 40.3 nM in the data set on A549 and 18 nM in the data set on HT-29.
On to `COc1c(Cl)c2c(c(OC)c1OC)-c1ccc(OC)c(=O)cc1[C@@H](NC(=O)Nc1ccccc1)CC2`, for which the figures for the IC50 in the data set on HCT-116, in the data set on A549 and with HT-29 were 36 nM, 48.1 nM and 35.2 nM, respectively.
As for `CCNC(=O)N[C@H]1CCc2c(Cl)c(OC)c(OC)c(OC)c2-c2ccc(OC)c(=O)cc21`, the IC50 in the data set with HCT-116 was 134 nM; in the data set on A549 it was 247 nM; in the data set on HT-29, 81.8 nM.
Regarding `COc1c(CF)c2c(c(OC)c1OC)-c1ccc(OC)c(=O)cc1[C@@H](NC(C)=O)CC2`, the IC50 worked out at 4750 nM in the data set with HCT-116, 8790 nM with A549 and 2620 nM with HT-29.
As to `COc1c(Cl)c2c(c(OC)c1OC)-c1ccc(OC)c(=O)cc1[C@@H](NC(=S)Nc1ccncc1)CC2`, the values for the IC50 in the data set with HCT-116, with A549 and in the data set with HT-29 were 34.1 nM, 247 nM and 23.5 nM, respectively.
In the case of `COc1c(Cl)c2c(c(OC)c1OC)-c1ccc(OC)c(=O)cc1[C@@H](NC(=S)Nc1nc(C)cs1)CC2`, the IC50 with HCT-116 was found to be 2.4 nM; in the data set on A549 it was 7.6 nM; with HT-29, 0.4 nM.
For the molecule `COc1c(Cl)c2c(c(OC)c1OC)-c1ccc(OC)c(=O)cc1[C@@H](NC(=O)N(C)C)CC2`, the IC50 came to 50.4 nM in the data set on HCT-116, 192 nM with A549 and 53.2 nM in the data set with HT-29.
Take `COc1c(Cl)c2c(c(OC)c1OC)-c1ccc(OC)c(=O)cc1[C@@H](NC(=O)NC(C)C)CC2`: the results for the IC50 in the data set on HCT-116, with A549 and in the data set with HT-29 were 189 nM, 289 nM and 181 nM, respectively.
As for `COc1c(Cl)c2c(c(OC)c1OC)-c1ccc(OC)c(=O)cc1[C@@H](NC(=S)Nc1ccccc1)CC2`, the IC50 is 1.2 nM in the data set with HCT-116, 24.4 nM with A549 and 0.4 nM with HT-29.
Regarding `CNC(=S)N[C@H]1CCc2c(Cl)c(OC)c(OC)c(OC)c2-c2ccc(OC)c(=O)cc21`, the IC50 turned out to be 6.3 nM with HCT-116, 10.9 nM in the data set with A549 and 2.8 nM with HT-29.
In the case of `COc1c(OC)c2c(c(C(F)(F)F)c1OC)CC[C@H](NC(C)=O)c1cc(=O)c(OC)ccc1-2`, the IC50 in the data set on HCT-116 worked out at 37.9 nM; with A549 it was 55.2 nM; in the data set with HT-29 it was 35 nM.
The matching figures for `COc1c(Cl)c2c(c(OC)c1OC)-c1ccc(OC)c(=O)cc1[C@@H](NC(=S)Nc1ccccc1C#N)CC2`: 2200 nM, 3800 nM and 866 nM.
For `COc1c(Cl)c2c(c(OC)c1OC)-c1ccc(OC)c(=O)cc1[C@@H](NC(=S)Nc1cnccn1)CC2` the same measures were 33 nM, 37.4 nM and 19.4 nM.
As to `COc1c(Cl)c2c(c(OC)c1OC)-c1ccc(OC)c(=O)cc1[C@@H](NC(=S)Nc1ccc(C#N)cc1)CC2`, the IC50 in the data set on HCT-116 stood at 25 nM; with A549, 67.8 nM; in the data set on HT-29 it was 6.4 nM.
On to `COc1c(Cl)c2c(c(OC)c1OC)-c1ccc(OC)c(=O)cc1[C@@H](NC(=S)N(C)C)CC2`, for which the IC50 in the data set with HCT-116 came to 8.4 nM; in the data set with A549, 10.7 nM; with HT-29, 8.8 nM.
For `COc1c(Cl)c2c(c(OC)c1OC)-c1ccc(OC)c(=O)cc1[C@@H](NC(=S)Nc1cccnn1)CC2` the same measures were 13.2 nM, 39.6 nM and 6.3 nM.
With `COc1c(Cl)c2c(c(OC)c1OC)-c1ccc(OC)c(=O)cc1[C@@H](NS(=O)(=O)CC(C)C)CC2`, the IC50 in the data set with HCT-116 is 33.2 nM; in the data set with A549 it was 40.8 nM; in the data set on HT-29, 36.4 nM.
With `COc1c(Cl)c2c(c(OC)c1OC)-c1ccc(OC)c(=O)cc1[C@@H](NC(N)=S)CC2`, the IC50 in the data set with HCT-116 worked out at 9 nM; in the data set with A549 it was 45 nM; in the data set with HT-29 it was 6.1 nM.

Values taken from ChEMBL document CHEMBL3132750, “4-Chlorocolchicine derivatives bearing a thiourea side chain at the C-7 position as potent anticancer agents” (Medchemcomm, 2014).
